# Data: patent US12319913B2, “5-halouracil-modified microRNAs and their use in the treatment of cancer” (The Research Foundation for The State University of New York, priority 2018, dated 2025)
# Assays:
# [1] = test system: MDA-MB-231 breast cancer cells; assay: Cell cycle analysis, MDA-MB-231 breast cancer cells; type: cell-based, human; settings: compared to native exogenous microRNAs or NC
# Method: Cell cycle analysis: Twenty-four hours after transfection, cells were harvested and resuspended at 0.5 to 1×10^6 cells/mL in modified Krishan's buffer supplemented with 0.02 mg/mL RNase H and 0.05 mg/mL propidium iodide. Stained cells were detected by flow cytometry and results were analyzed with Modfit LT™ software. The experiments for cell cycle analysis were performed at least three times.
# [2] = test system: MDA-MB-231 triple negative breast cancer cells; assay: MTT cell proliferation, MDA-MB-231, with or without oligofectamine; type: cell-based, human
# Method: For transfections, 1×10^5 cells were plated in six-well plates and transfected with 100 nM of control non-specific miRNA (Thermo Fischer), a modified microRNA, or exogenous native microRNA after 24 hours using Oligofectamine (Thermo Fischer) following the manufacturer's protocols. For reagent free transfection, cells were plated in 6 well plates at (1×10^5) cells per well. Twenty-four hours later 100 pmol miRNA (Control, miR-15a, Mimic-1) were diluted in Optimem (Thermo Fischer) and added to the plate. Media was changed after 24 hours. Media was supplemented with 10% fetal bovine serum (Thermo Fischer). Briefly, cells were cultured in growth media (DMEM/F12 supplemented with B27, 10 ng/mL bFGF, and 20 ng/mL EGF (Life Technologies) in ultra-low attachment flasks) for up to 6 days. The spheroid cells were maintained by collection through gentle centrifugation, dissociation to single cells and replating.
# Furthermore, to test whether or not the modified microRNAs of the present disclosure can be delivered directly to cells and taken up by the cancer cells without the use of transfer agents or vehicles (i.e., oligofectamine), MDA-MB-231 triple negative breast cancer cells were transfected with miR-NC (negative control), exogenous unmodified miR-200b or miR-489, 5-FU-miR-200b or modified miR-489 by using oligofectamine or without delivery vehicle. As shown in FIGS. 17A-17B and 20A, the effects of expression of the exemplary modified miRs tested on breast cancer cell proliferation were monitored by MTT assay for 6 days upon transfection or incubation.
# TS-FdUMP = molecular target: T1, TS-FdUMP (Homo sapiens, UniProt P04818); assay: Western blot of TS / TS-FdUMP in MDA-MB-231 cells; type: cell-based; settings: breast cancer cells, FIG. 21B
# T1 construct: endogenous in cells
# T1 sequence (P04818 2-313 limits assumed): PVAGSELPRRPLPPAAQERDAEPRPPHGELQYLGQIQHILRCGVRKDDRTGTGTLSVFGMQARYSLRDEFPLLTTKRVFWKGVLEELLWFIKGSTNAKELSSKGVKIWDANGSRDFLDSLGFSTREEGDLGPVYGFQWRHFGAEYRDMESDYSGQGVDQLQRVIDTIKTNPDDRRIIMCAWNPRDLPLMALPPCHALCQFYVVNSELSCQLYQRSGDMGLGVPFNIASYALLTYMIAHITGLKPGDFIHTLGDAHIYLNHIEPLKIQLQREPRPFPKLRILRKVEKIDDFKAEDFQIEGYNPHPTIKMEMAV
# Method: (§1) Western immunoblot analysis: Forty-eight hours after transfection, equal amounts of protein (15 μg) extracted from cells lysed in RIPA buffer with protease inhibitor (Sigma) and were separated on 10%-12% sodium dodecyl sulfate-polyacrylamide gels using standard procedures. The primary antibodies used for the analysis were rabbit anti-YAP1 monoclonal antibody (1:10000) (Cell Signaling Technologies), anti-DLCK1 (1:500) (Abcam), anti-BCL2 (1:500) (NeoMarkers), anti-MDC1 (1:500), anti-SUZ12 (1:500), anti-pChk-1 (1:500), anti beta-actin (1:500), anti-BMI-1 (1:10000) (Cell Signaling Technologies), mouse anti-human TS antibody (1:500), anti-α-tubulin (1:50000) (Santa Cruz Biotech Inc.), anti-GAPDH (1:100000) (Santa Cruz Biotech Inc.), anti-E2F3 (1:500) (Santa Cruz Biotech Inc.), Horseradish peroxidase-conjugated antibodies against mouse or rabbit (1:5000, Santa Cruz Biotech Inc.) were used as the secondary antibodies. Protein bands were visualized with autoradiography film using SuperSignal West Pico Chemiluminescent Substrate (Thermo Fischer). Western blot density was quantified using Image J software.
# MDC1 and SUZ12 = assay: Western blot of MDC1 and SUZ12 in triple negative breast cancer cells; type: cell-based, human
# Method: as §1
# [3] = test system: MDA-MB-231 breast cancer cells; assay: Triple negative breast cancer xenograft mouse model (MDA-MB-231, tail vein); type: in vivo; settings: intravenous, every other day for 17 days, vs negative control and native miR-489
# Method: Modified miR-489 inhibits breast cancer development and progression in vivo. A triple negative breast cancer xenograft mouse model was developed by tail vein injection of MDA-MB-231 breast cancer cells and tumors were developed over time. Mice were then injected with modified miR-489 composition having the nucleotide sequence set forth in SEQ ID NO: 32, exogenous native miR-489, or negative control miRNA by intravenous injection with treatment frequency of one injection every other day for 17 days and mice were euthanized and tumors size was measured using imaging techniques.
substance,measurement,setting,value
"CGACGGCAU^FAU^FACACU^FACAGU^FG (CGACGGCAUAUACACUACAGUG; 5-fluorouracil replacing uracils, chemistry not fully specified) [modified miR-489]",sub G1 and G1/S ratio,[1],significantly increase
same,cell proliferation without delivery vehicle (no oligofectamine),"[2]; MDA-MB-231, MTT assay",effectively reduced cell proliferation
same,cell proliferation in the presence of oligofectamine,"[2]; MDA-MB-231, MTT assay for 6 days, vs miR-NC",dramatically reduced the cell growth from day 3
same,expression of TS protein,TS-FdUMP,"reduces the expression, and thus activity of TS protein"
same,MDC1 and SUZ12 protein expression without a transfection reagent,"MDC1 and SUZ12; MDA-MB-231, no oligofectamine",inhibits MDC1 and SUZ12 protein expression
same,MDC1 and SUZ12 protein expression,"MDC1 and SUZ12; triple negative breast cancer cells, western blot",further reduction of SUZ12 and MDC1
same,tumor size,[3],drastic reduction in tumor size
